# Experimental data reported in US20230339902A1, “TRICYCLIC LIGANDS FOR DEGRADATION OF IKZF2 OR IKZF4” (C4 Therapeutics, Inc., priority 2020, published 2023).
# Where two headings read alike, the source gives them in different places.
# What was measured:
# GSPT1 = target: T1, GSPT1 (Homo sapiens, UniProt P15170+Q96SW2); experiment: GSPT1 degradation assay, HiBiT method (Nano-Glo HiBiT Lytic Assay); assay type: cell-based; settings: 293T.114 (HiBiT-GSPT1) cells, 6 hours
# T1 construct: endogenously expressing GSPT1 with HiBiT fusion tag via CRISPR; endogenous in cells; host or cells: 293T.114 (HiBiT-GSPT1), CRISPR knock-in, generated in house
# Protocol: Example 62 GSPT1 Degradation Assay
# DMEM no-phenol red medium and fetal bovine serum (FBS) were purchased from Gibco (Grand Island, NY, USA). Nano-Glo® HiBiT Lytic Assay System was purchased from Promega (Madison, WI, USA). 293T.114 (HiBiT-GSPT1) cell line was generated in house, endogenously expressing GSPT1 with HiBiT fusion tag via CRISPR. Cell culture flasks and 384-well microplates were acquired from VWR (Radnor, PA, USA).
# GSPT1 Degradation Analysis
# (§1) GSPT1 degradation was determined based on quantification of luminescent signal using Nano-Glo® HiBiT Lytic Assay kit. Test compounds were added to the 384-well plate from a top concentration of 10 µM with 11 points, half log titration in duplicates. 293T.114 cells were added into 384-well plates at a cell density of 6000 cells per well. The plates were kept at 37° C. with 5% CO2 for 6 hours. The cells treated in the absence of the test compound were the negative control and the cells without Nano-Glo® HiBiT Lytic reagent were the positive control. After 6-hour incubation, Nano-Glo® HiBiT Lytic Assay reagents were added to the designated wells. Luminescence was acquired on EnVision™ Multilabel Reader (PerkinElmer, Santa Clara, CA, USA).
# IKZF2 = target: T2, IKZF2 (Homo sapiens, UniProt Q96SW2+Q9UKS7); experiment: IKZF2 degradation assay, HiBiT method (Nano-Glo HiBiT Lytic Assay); assay type: cell-based; settings: JURKAT.21 (IKZF2-HiBiT) cells
# T2 construct: endogenously expressing IKZF2 with HiBiT fusion tag via CRISPR; host or cells: JURKAT.21 (IKZF2-HiBiT), CRISPR knock-in
# Text: Example 61 IKZF2 Degradation Assay
# RPMI 1640 Medium without phenol red and fetal bovine serum (FBS) were purchased from Gibco (Grand Island, NY, USA). Nano-Glo® HiBiT Lytic Assay System was purchased from Promega (Madison, WI, USA). JURKAT.21 (IKZF2-HiBiT) cell line, endogenously expressing IKZF2 with HiBiT fusion tag via CRISPR, was purchasing from Synthego (Menlo Park, CA, USA). Cell culture flasks and 384-well microplates were acquired from VWR (Radnor, PA, USA).
# IKZF2 Degradation Analysis
# as §1, with “IKZF2” for “GSPT1”, “JURKAT.216” for “293T.114”, “5000” for “6000”, “6 or 24” for “6”, “6-hour or 24-hour” for “6-hour”, “cells.” for “designated wells.”
# [1] = 6 hours, read-out: HiBiT-Degradation JURKAT.21 IKZF2 6 hours DC50
# [2] = 6 hours, read-out: HiBiT-Degradation JURKAT.21 IKZF2 6 hours Emax
# T1 sequence (P15170 whole entry, the tested form may be a part): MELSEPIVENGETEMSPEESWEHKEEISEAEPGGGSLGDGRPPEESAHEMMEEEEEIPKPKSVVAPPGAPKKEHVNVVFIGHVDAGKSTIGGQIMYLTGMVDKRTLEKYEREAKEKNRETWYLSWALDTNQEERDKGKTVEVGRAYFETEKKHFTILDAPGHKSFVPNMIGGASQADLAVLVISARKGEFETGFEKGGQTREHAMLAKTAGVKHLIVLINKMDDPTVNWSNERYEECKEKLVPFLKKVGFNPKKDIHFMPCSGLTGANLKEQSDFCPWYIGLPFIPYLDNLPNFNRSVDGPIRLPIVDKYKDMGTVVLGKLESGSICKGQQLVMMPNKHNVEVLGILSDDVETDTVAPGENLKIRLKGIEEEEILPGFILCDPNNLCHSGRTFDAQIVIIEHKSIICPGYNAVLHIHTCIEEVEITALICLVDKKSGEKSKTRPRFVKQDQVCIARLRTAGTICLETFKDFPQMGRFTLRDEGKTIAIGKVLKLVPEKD
# T1 sequence (Q96SW2 whole entry, the tested form may be a part): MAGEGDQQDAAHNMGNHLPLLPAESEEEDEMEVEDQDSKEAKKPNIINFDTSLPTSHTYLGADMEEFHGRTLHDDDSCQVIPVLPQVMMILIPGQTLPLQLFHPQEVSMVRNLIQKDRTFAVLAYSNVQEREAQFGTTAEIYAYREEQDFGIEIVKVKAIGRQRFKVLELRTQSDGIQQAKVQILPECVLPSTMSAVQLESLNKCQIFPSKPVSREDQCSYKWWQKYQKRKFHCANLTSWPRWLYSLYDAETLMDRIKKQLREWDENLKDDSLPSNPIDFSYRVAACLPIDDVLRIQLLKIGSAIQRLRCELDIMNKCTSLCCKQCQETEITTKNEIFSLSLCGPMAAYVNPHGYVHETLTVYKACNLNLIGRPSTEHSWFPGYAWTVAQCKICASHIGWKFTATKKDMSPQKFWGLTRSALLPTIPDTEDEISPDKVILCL
# T1 sequence (Q16531 whole entry partner, the tested form may be a part): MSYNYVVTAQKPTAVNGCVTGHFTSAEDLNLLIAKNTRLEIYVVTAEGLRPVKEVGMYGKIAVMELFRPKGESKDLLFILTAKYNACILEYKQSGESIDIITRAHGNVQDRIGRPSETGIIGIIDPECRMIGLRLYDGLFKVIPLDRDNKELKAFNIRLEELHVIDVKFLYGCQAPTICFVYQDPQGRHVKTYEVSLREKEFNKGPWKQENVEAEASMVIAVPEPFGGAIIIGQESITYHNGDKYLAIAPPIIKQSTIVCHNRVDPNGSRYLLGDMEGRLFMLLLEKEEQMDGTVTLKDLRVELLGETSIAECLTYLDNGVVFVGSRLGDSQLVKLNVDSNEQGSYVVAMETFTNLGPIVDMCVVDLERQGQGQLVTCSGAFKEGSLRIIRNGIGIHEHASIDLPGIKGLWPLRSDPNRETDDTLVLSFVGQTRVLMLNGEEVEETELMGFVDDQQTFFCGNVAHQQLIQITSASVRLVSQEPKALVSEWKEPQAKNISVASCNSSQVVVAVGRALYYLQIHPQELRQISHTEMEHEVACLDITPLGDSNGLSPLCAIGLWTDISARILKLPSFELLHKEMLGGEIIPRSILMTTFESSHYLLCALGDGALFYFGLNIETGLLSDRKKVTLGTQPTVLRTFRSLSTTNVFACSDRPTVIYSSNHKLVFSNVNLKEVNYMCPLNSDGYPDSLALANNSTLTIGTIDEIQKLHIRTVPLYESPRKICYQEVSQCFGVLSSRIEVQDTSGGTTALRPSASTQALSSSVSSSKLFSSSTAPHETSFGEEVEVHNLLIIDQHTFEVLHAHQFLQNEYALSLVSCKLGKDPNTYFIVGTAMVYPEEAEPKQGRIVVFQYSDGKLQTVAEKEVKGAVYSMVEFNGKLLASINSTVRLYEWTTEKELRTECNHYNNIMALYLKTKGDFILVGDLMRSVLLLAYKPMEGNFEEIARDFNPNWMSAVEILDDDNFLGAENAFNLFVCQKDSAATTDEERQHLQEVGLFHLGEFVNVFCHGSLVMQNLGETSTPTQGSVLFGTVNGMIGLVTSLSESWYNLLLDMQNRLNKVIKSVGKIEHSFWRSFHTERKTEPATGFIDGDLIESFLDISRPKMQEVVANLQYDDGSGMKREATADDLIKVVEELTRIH
# T2 sequence (Q9UKS7 whole entry, the tested form may be a part): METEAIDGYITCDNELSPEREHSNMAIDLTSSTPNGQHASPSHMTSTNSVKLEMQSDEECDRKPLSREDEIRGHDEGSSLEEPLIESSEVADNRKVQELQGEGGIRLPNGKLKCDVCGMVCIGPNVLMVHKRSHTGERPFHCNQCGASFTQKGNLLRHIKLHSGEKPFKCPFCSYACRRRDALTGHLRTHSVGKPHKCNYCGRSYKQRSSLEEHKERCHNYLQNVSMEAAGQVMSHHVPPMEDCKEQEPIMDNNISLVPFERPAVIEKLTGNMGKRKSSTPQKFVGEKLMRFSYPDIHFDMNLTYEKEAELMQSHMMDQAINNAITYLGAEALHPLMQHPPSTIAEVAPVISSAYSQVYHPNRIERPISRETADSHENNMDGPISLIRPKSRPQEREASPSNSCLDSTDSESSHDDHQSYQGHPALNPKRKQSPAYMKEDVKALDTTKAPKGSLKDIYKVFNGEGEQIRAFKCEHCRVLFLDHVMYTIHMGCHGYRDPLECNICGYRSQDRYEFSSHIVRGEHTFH
# T2 sequence (Q96SW2 whole entry, the tested form may be a part): as the sequence (Q96SW2 whole entry, the tested form may be a part) above
# T2 sequence (Q16531 whole entry partner, the tested form may be a part): as the sequence (Q16531 whole entry partner, the tested form may be a part) above
DC50 (GSPT1) [µM],Emax (GSPT1) [%],DC50 (IKZF2; [1]) [µM],Emax (IKZF2; [2]) [%],"DC50 (IKZF2; 24 hours, read-out: HiBiT-Degradation JURKAT.21 IKZF2 24 hours DC50) [µM]","Emax (IKZF2; 24 hours, read-out: HiBiT-Degradation JURKAT.21 IKZF2 24 hours Emax) [%]",Structure (SMILES)
> 10,> 95,> 10,60 to 95,,,"COc1ncc(CN2CCC(c3ccc4c5c(ccnc35)N(C3CCC(=O)NC3=O)C4=O)CC2)cn1 (stereo not shown) [Compound 127, 3-[14-[1-[(2-methoxypyrimidin-5-yl)methyl]-4-piperidyl]-24-oxo-26,31-diazatricyclododeca-1(14),2(15),3(16),4(26),18-pentaen-31-yl]piperidine-2,6-dione]"
> 10,60 to 95,> 10,60 to 95,> 10,60 to 95,"O=C1CCC(N2C(=O)c3ccc(C4CCN(Cc5cccc(S(=O)(=O)N6CCOCC6)c5)CC4)c4nccc2c34)C(=O)N1 (stereo not shown) [Compound 128, 3-[21-[1-[(3-morpholinosulfonylphenyl)methyl]-4-piperidyl]-29-oxo-31,35-diazatricyclododeca-3(21),4(22),5(23),6(31),24-pentaen-35-yl]piperidine-2,6-dione]"
